Assay results reported in US20090105278A1, “Selective inhibitors of human corticosteroid syntheses” (Universitat Des Saarlandes, priority 2004, published 2009).
Read-outs that look alike come from different tables or passages of the source.

How the values were obtained:
human CYP11B2 = target: T1, human CYP11B2 (Homo sapiens, UniProt P19099); test: Screening test in transgenic fission yeast (S. pombe PE1) expressing human CYP11B2; type: cell-based; design: expressed in transfected cells; settings: S. pombe cells which express human CYP11B2, deoxycorticosterone substrate 100 nM, inhibitor 500 nM; for inhibition at 0.5 µM: read-out: % Inhibition human hCYP11B2
T1 sequence (P19099 25-503): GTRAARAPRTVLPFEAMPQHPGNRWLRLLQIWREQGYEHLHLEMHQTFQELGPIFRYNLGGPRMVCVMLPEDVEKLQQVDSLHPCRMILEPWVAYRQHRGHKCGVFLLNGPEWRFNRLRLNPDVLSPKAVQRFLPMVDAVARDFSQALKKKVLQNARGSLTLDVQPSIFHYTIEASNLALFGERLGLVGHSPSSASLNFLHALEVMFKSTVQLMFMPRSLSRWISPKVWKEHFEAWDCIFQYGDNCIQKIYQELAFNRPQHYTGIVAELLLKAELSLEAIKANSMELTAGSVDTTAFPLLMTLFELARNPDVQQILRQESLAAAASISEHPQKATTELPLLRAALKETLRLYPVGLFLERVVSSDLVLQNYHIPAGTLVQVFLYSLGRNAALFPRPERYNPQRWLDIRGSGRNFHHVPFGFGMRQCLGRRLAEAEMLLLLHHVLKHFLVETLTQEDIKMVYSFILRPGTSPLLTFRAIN
Procedure: 492.5 μl of this cell suspension was admixed with 5 μl of inhibitor solution (50 μM of the compound to be tested in ethanol or DMSO) and incubated at 32° C. for 15 min. Controls were admixed with 5 μl of ethanol. […] The test was quenched by extracting the sample with 500 μl of EtOAc. After centrifugation (10,000 g, 2 min), the EtOAc phase was removed and evaporated to dryness. […] The reaction of the substrate to form corticosterone was analyzed by HPTLC (see below).
The quantification of the spots for the substrate deoxycorticosterone and the products corticosterone (and, if detectable, 18-hydroxycorticosterone and aldosterone) was effected with the related evaluation program AIDA. […] The calculation of the conversion rate was effected according to equation 1.
The plate was developed twice with the mobile solvent chloroform:methanol:water (300:20:1). Unlabeled 11-deoxycorticosterone and corticosterone were applied as a reference for the CYP11B1 reaction. For the CYP11B2 reaction, 11-deoxycorticosterone, corticosterone, 18-hydroxycorticosterone and aldosterone were used as references. The detection of the unlabeled references was effected at 260 nm. Subsequently, imaging plates (BAS MS2340, for ^14C samples, Raytest, Straubenhardt, Germany) were exposed to the HPTLC plates for 48 h. The imaging plates were scanned with the phosphoimager system Fuji FLA 3000 (Raytest, Straubenhardt, Germany), and the steroids were quantified.

human CYP17 = target: T2, human CYP17 (Homo sapiens, UniProt P05093); test: Percent inhibition of CYP17 (membrane fraction of E. coli pJL17/OR); type: biochemical; settings: for inhibition at 2.5 µM: read-out: % Inhibition human CYP17
T2 construct: made in house; host or cells: E. coli pJL17/OR (membrane fraction)
T2 sequence (P05093 1-508): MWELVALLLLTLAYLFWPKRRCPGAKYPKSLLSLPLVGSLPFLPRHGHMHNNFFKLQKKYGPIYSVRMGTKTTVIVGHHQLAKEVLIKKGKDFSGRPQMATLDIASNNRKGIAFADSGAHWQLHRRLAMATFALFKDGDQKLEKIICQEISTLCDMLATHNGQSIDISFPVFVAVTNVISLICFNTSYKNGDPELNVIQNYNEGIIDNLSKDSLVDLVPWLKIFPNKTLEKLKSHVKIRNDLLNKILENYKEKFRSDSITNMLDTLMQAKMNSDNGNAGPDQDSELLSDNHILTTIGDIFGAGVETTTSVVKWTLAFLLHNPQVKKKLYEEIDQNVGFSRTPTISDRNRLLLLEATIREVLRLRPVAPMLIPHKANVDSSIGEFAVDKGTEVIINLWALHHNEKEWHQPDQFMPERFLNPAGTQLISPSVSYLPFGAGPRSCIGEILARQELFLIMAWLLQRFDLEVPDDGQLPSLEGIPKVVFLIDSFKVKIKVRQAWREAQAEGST
Procedure: The recombinantly altered E. coli strain pJL17/OR, in which human CYP17 and rat NADPH-P450-reductase were coexpressed, was grown and stored according to the method of Ehmer et al. (Ehmer, P. B. et al., J. Steroid Biochem. Mol. Biol. 75: 57-63 (2000)). For isolating the membrane fraction, 5 ml of the bacterial cell suspension with an OD578 of 50 was washed with phosphate buffer (0.05 M; pH 7.4; 1 mM MgCl2; 0.1 mM EDTA and 0.1 mM DTT). The bacteria were removed by centrifugation and resuspended in 10 ml of ice cold TES buffer (0.1 M tris-acetate; pH 7.8; 0.5 mM EDTA; 0.5 M sucrose). Four milligrams of lysozyme in 10 ml of ice cold water was added to obtain a final concentration of 0.2 mg/ml. This was followed by incubation for 30 minutes under continued shaking on ice. The spheroblasts were obtained by a renewed centrifugation step at 12,000 g for 10 min and again resuspended in 3 ml of ice cold phosphate buffer (composition see above, additionally 0.5 mM PMSF).
After freezing and thawing, the cells were lysed on ice with an ultrasonic disintegrator. The whole cells and the cell debris were centrifuged off at 3000 g for 7 min. The supernatant was again centrifuged at 50,000 g for 20 min at 4° C. A membrane pellet sedimented and was resuspended in 2 ml of phosphate buffer (composition see above) with […] by means of an Ultra-Turrax mixer. […] Aliquots with an approximate protein concentration of 5 mg/ml were stored at −70° C. until use.
Control incubations were performed in parallel with 5 μl DMSO without urea. The reaction was started by adding 50 μl of a membrane suspension diluted 1 to 5 in phosphate buffer (0.8 to 1 mg of protein per ml). After thoroughly mixing the components, the mixture was incubated at 37° C. for 30 min.
The steroids were extracted with 1 ml of EtOAc. […] After the centrifugation, 800 μl of the organic phase was removed, placed into a new vessel and evaporated to dryness. The samples were dissolved in 50 μl of a water-methanol mixture (1:1) and analyzed by HPLC. The substrate conversion was calculated from the ratio of the areas of the product peaks (17α-hydroxyprogesterone and 16α-hydroxyprogesterone) to that of the substrate peak. The activity of the inhibitors was calculated from the reduced substrate conversion after the addition of inhibitors in accordance with the following formula: […]

bovine adrenal CYP11B = target: T3, bovine adrenal CYP11B (Bos taurus, UniProt P15150); test: Percent inhibition of bovine CYP11B (adrenal mitochondria); settings: corticosterone substrate 200 μM, inhibitor 1 μM; for % Inhibition bovine bCYP11B: bovine adrenal mitochondria, 1 mg/ml protein; for inhibition at 1 µM: read-out: % Inhibition bovine bCYP11B, bovine adrenal mitochondria, 1 mg/ml protein
T3 sequence (P15150 25-503): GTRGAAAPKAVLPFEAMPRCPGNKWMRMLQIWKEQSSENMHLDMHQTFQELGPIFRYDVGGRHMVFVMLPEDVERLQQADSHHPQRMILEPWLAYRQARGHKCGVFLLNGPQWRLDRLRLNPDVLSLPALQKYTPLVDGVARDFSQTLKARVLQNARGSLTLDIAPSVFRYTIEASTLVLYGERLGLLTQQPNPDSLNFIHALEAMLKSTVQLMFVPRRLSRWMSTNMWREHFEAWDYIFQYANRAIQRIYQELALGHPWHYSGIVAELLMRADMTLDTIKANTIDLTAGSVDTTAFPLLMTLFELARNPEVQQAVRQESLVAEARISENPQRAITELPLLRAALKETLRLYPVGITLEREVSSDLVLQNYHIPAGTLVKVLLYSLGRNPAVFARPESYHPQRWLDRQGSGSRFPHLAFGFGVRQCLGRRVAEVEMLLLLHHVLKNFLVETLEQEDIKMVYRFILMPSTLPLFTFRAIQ
Procedure: Bovine adrenal glands obtained freshly after slaughtering were stored in ice cold Tris-sucrose buffer (0.25 M sucrose, 0.05 M Tris; pH 7.4) until processed. After removing the appending adipose tissue, the adrenal medulla was carefully separated from the adrenal cortex using scissors. The pieces of adrenal cortex were coarsely comminuted with scissors, washed with Tris-sucrose buffer, weighed and finely comminuted in the above buffer (2 ml per g of tissue) with a hand mixer. Thereafter, the tissue was homogenized with an Ultra-Turrax mixer. For separating coarse cell debris and the nuclei, the homogenizate was centrifuged twice for 15 min at 900 g and 4° C. The supernatant was subsequently centrifuged for 35 min at 11,000 g for recovering the mitochondrial fraction. For purifying the mitochondrial fraction, the precipitate was resuspended in Tri-sucrose buffer and again centrifuged at 11,000 g for 35 min. This washing step was performed two times in total. After the last centrifugation, the pellet was resuspended in Tris-sucrose buffer containing 0.001 M EDTA and frozen at −70° C.
The substrate corticosterone was dissolved in methanol and diluted with Tris buffer to a final concentration of 200 μM. The inhibitors were also dissolved in methanol and diluted with buffer to a final concentration of 1 μM. […] Corticosterone (200 μM) was incubated with inhibitor (1 μM) and mitochondrial enzyme (0.5 mg/0.5 ml) with the addition of a regenerating system consisting of NADP^+ (1 mM), glucose-6-phosphate (7 mM) and glucose-6-Phosphate dehydrogenase (1 IU/0.5 ml). Up to 5 inhibitors per test could be incubated in duplicate. […] After preincubation for 5 minutes (30° C.; water bath), the reaction was started by adding mitochondrial suspension. […] The blind values were admixed with 250 μl of HCl before the enzyme was pipetted in. The steroids were separated off by shaking with 1 ml of ethyl acetate (10 min). After centrifugation (15,000 g, 10 min), 900 μl of the organic phase was shaken with 250 μl 1 N NaOH (10 min), and 800 μl of supernatant was again washed with 250 μl of buffer. […] 18-OH-corticosterone (retention time: 10 min) and corticosterone (retention time: 21 min) were separated. The height of the 18-OH-corticosterone peak was used for evaluation. The percent inhibition of the 18-hydroxylation of corticosterone by the inhibitors was based on the mediums of the control incubation, taking the blind values into account.

ACTH-stimulated rats = settings: Hausler et al. 1989; cited from earlier work
CYP11B1 in NCI-H295R = target: T4, CYP11B1 in NCI-H295R (Homo sapiens, UniProt P15538); test: cell-based; settings: read-out: NCI-H295R CYP11B1 RSS % inhibition
T4 sequence (P15538 25-503): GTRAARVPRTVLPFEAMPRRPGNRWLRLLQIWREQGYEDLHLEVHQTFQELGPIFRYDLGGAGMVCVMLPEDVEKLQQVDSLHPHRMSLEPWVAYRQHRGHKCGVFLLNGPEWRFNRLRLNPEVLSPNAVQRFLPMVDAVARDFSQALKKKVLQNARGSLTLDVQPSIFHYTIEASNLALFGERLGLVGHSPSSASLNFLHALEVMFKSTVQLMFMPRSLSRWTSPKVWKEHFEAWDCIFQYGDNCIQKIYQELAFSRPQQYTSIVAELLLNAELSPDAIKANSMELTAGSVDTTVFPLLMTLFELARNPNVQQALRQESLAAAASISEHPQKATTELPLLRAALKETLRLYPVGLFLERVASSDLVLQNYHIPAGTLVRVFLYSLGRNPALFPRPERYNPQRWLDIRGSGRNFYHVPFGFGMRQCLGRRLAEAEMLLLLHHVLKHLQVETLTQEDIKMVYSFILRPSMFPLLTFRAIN
Procedure: For testing inhibitors, a preincubation for one hour was performed first, followed by starting the enzyme reactions by adding substrate (500 nM).
A) Seeding: The cell lines were grown and passaged until a confluent cell lawn had formed. By tryptic treatment, the cell material of at least two culture dishes was obtained, and the number of cells determined by means of a CASY TT cell counter (150 μl capillary). […] With the cell material of two confluently grown culture dishes, two 24-well plates could be coated. After 24 hours, the cells had grown on, and after another 24 hours' stimulation phase with a solution containing potassium ions (final concentration: 20 mM KCl), could be employed for the test.
Of this solution, 5 μl each was added to the samples.
Then, the 24-well plate was stored in a CO2 incubator at 37° C. and […]. The incubation time was 3 hours when deoxycorticosterone was used as the substrate, 24 Hours for corticosterone, and 48 hours for deoxycortisol.
Test stop: After elapse of the incubation times, the plates were briefly swung, and then the content of the wells was removed quantitatively if possible and inactivated by mixing with 1000 μl of dichloromethane in a 2 ml Eppendorf vessel. After 10 minutes of shaking, it was centrifuged for phase separation, and the […], organic phase was transferred into a 1.5 ml Eppendorf vessel. […]

[1] = E. coli which expresses human CYP17, 5 mg/ml protein, progesterone substrate 2.5 μM, inhibitor 2.5 μM

Which results are given for “5-[(Z)-(5-Fluoro-2,3-dihydro-1H-indene-1-ylidene)methyl]-1H-imidazolium oxalate [Compound 47b]”?
% Inhibition human hCYP11B2 (human CYP11B2): 58%; % Inhibition human CYP17 (human CYP17; [1]): 11%; % Inhibition bovine bCYP11B (bovine adrenal CYP11B): 64%

Which inhibition at 0.5 µM (human CYP11B2) does the source give for N#Cc1ccc2c(c1)CCC/C2=C/c1cnc[nH]1.O=C(O)C(=O)O [Compound 44b, (5Z)-5-(1H-Imidazole-5-ylmethylene)-5,6,7,8-tetrahydronaphthalene-2-carbonitrile oxalate] here?
Its inhibition at 0.5 µM is 54%.

And the inhibition at 2.5 µM (human CYP17; [1])?
The inhibition at 2.5 µM was 4%.

What about the “% Inhibition bovine bCYP11B” value (bovine adrenal CYP11B; oxalate) of the same compound?
The value was 97%.

What about the inhibition at 1 µM (bovine adrenal CYP11B) of the same compound?
Its inhibition at 1 µM is about 90%.

And the melting point?
Its melting point is 206 °C.

Which inhibition at 0.5 µM (human CYP11B2) does the source give for N#Cc1ccc2c(c1)CC/C2=C\c1cnc[nH]1.O=C(O)C(=O)O [Compound 45a, (1E)-1-(1H-Imidazole-5-ylmethylene)indane-5-carbonitrile oxalate] here?
The inhibition at 0.5 µM was 49%.

What about the inhibition at 2.5 µM (human CYP17; [1]) of the same compound?
The inhibition at 2.5 µM was 21%.

And the “% Inhibition bovine bCYP11B” value (bovine adrenal CYP11B; oxalate)?
The value was 81%.

What about the inhibition at 1 µM (bovine adrenal CYP11B) of the same compound?
The inhibition at 1 µM was about 90%.

What about the melting point of the same compound?
Its melting point is 217 °C.

With N#Cc1ccc2c(c1)CC/C2=C/c1cnc[nH]1.O=C(O)C(=O)O [Compound 45b, (1Z)-1-(1H-Imidazole-5-ylmethylene)indane-5-carbonitrile oxalate] as the compound, how does the inhibition at 0.5 µM (human CYP11B2) read?
The inhibition at 0.5 µM was 65%.

And the inhibition at 2.5 µM (human CYP17; [1])?
Its inhibition at 2.5 µM is 4%.

And the “% Inhibition bovine bCYP11B” value (bovine adrenal CYP11B; oxalate)?
The value was 100%.

And the inhibition at 1 µM (bovine adrenal CYP11B)?
Its inhibition at 1 µM is about 90%.

And the melting point?
Its melting point is 207 °C.

What does the source list for Fc1ccc2c(c1)CC/C2=C\c1cnc[nH]1 [Compound 47a, 5-[(E)-(5-Fluoro-2,3-dihydro-1H-indene-1-ylidenemethyl]-1H-imidazolium chloride]?
inhibition at 0.5 µM (human CYP11B2): 59%; inhibition at 2.5 µM (human CYP17; [1]): 16%; inhibition at 1 µM (bovine adrenal CYP11B): 67%

With N#Cc1ccc(C2CCCc3cncn32)cc1 (stereo not drawn) [Fadrozole, 4-(5,6,7,8-tetrahydroimidazo[1,5-a]pyridine-5-yl)benzonitrile, reference compound] as the compound, how does the “Aldosterone and corticosterone levels” value (ACTH-stimulated rats) read?
The value was “lowers the aldosterone and corticosterone levels”.

And the inhibition at 2.5 µM (human CYP17)?
The inhibition at 2.5 µM was 7%.

What about the inhibition at 2.5 µM (CYP11B1 in NCI-H295R) of the same compound?
Its inhibition at 2.5 µM is 92%.
